# Assay results as given in US20120171123A1, “USES AND COMPOSITIONS FOR TREATMENT OF RHEUMATOID ARTHRITIS” (priority 2006, published 2012).
# Marks after values point to notes of the source that are not given here.
# Key:
# adult patients with RA = assay: Study 1: change in C-reactive protein at Week 12; format: in vivo, human
# Protocol: 407 patients with active RA enrolled in the 2 study arms. Of these patients, 299 (73.5%) patients completed the study until Week 52 and were evaluated.
# Patients were grouped into three cohorts based on baseline CRP concentrations: low (<1 mg/dL); intermediate (1-4 mg/dL); and high (>4 mg/dL). Analyses were further conducted in two categories of patients according to their change in CRP concentrations at Week 12: those with a ≧20% decrease in CRP from baseline; or those with a <20% decrease in CRP from baseline. The following efficacy and radiographic measures were analyzed at Week 52 in the three baseline CRP categories and in the two Week 12 change in CRP categories: DAS28, ACR 20/50/70, Health assessment questionnaire (HAQ), and Total Sharp score (TSS).
# [1] = tested on: patients with RA who had failed prior treatment with infliximab; assay: Adalimumab after failed infliximab (16-week study): DAS28; format: in vivo, human; conditions: for Change in DAS28, mean change from baseline: 16 wk
# Excerpt: Patients eligible to participate in the study included those with long-standing, moderate to severe RA who had terminated infliximab therapy because of lack or loss of efficacy and/or intolerance/side effects. […] Follow-up visits for safety and efficacy monitoring were scheduled at 2, 8, and 16 weeks. […] Efficacy parameters included TJC28 and SJC28; DAS28; ACR20, ACR50 Response; Moderate EULAR response; and HAQ. Subgroup analysis by reason for discontinuation included: • in case of discontinuation due to lack or loss of efficacy, patients were counted in the corresponding group regardless of additional cause of intolerance. • The subgroup “Discontinuation due to intolerance” was exclusive.
# [2] = tested on: patients with long-standing RA; conditions: in vivo
# [3] = tested on: patients with moderate to severe rheumatoid arthritis; assay: Study C: EULAR response; format: in vivo, human; conditions: 12 weeks
# Protocol: The Canadian Adalimumab Clinical Trial (Study C) was an open-label, multi-center, Phase IIIb study conducted in Canada. […] Efficacy and safety were assessed at baseline, 4, 8, and 12 weeks. Efficacy assessments included tender joint count (TJC 0-28), swollen joint count (SJC 0-28), Disease Activity Score 28 (DAS28), Health Assessment Questionnaire (HAQ), and EULAR response. This was a preliminary analysis of 236 patients. The sample size for each outcome variable is based on the data available at the time of the analysis. The data from this preliminary analysis were compared with the Week 12 data from Study A (N=2008).
# [4] = tested on: patients with early vs. long-standing RA; conditions: human, in vivo
# Excerpt: Study J was a 2-year randomized controlled trial in patients with early RA (disease duration<3 years). Participants in these clinical trials and in other phase Mb studies, were routinely evaluated for safety. Reports of serious adverse events (SAE) were tabulated using MedDRA coding by events per 100-patient-years (E/100PY). SAE rates were compared with respect to disease duration between patients with early (<3 yrs) and long-standing RA.
# [5] = tested on: patients with severe, active RA; assay: Study 2 / Study 3 OLE (adalimumab monotherapy): FACIT-F fatigue; format: in vivo, human
# Protocol: In addition to the SF-36 instrument, the Health Utilities Index Mark 3 (HUI3) and the Functional Assessment of Chronic Illness Therapy-Fatigue (FACIT-F) questionnaires were administered at baseline, 12 weeks, and the end of the study.
# The HUI3 scale is 0-1, with “1” denoting perfect health and “0” denoting death. FACIT-F scores range from 0-52, with higher scores representing less fatigue. The SF-36 includes one multi-item scale that assesses eight different dimensions of health, including physical and psychosocial components. For each dimension a value of 0-100 is given, with higher numbers representing less impairment. Changes in HUI3 of ≧0.03, in FACIT-F of ≧4 and in SF-36 of ≧4.4 (physical subscales) and ≧3.1 (mental subscales) are considered clinically meaningful.
# All patients studied had severe, active RA. Patients' fatigue was measured by the FACIT-F, which is validated for RA.
# FACIT-F was administered at baseline, at 1 or 2 time points during the study, and at the end of the study. The questionnaire asked each patient the following “Below is a list of statements that other people with your illness have said are important. By circling one (1) number per line, please indicate how true each statement has been for you during the past 7 days.” The questions in the questionnaire used to determine the FACIT score included the following, where each patient indicated the appropriate number (0-4): I feel fatigued; I feel weak all over; I feel listless (“washed out”); I feel tired; I have trouble starting things because I am tired; I have trouble finishing things because I am tired; I have energy; I am able to do my usual activities; I need to sleep during the day; I am too tired to eat; I need help doing my usual activities; I am frustrated by being too tired to do the things I want to do; I have to limit my social activity because I am tired. FACIT-F scores range from 0-52, with higher scores representing less fatigue. FACIT-F changes of ≧4 are considered clinically meaningful.
# Data were obtained from a health economics companion study to a pivotal trial of adalimumab, which rolled over into a long-term, open-label extension (OLE) study. […] Patients' fatigue was measured by the FACIT-F questionnaire. FACIT-F was administered at baseline, and at several time points during the study. FACIT-F scores range from 0-52, with higher scores representing less fatigue. Changes in FACIT-F scores of ≧4 were considered clinically meaningful.
# In addition to clinical parameters, the SF-36 instrument, the Health Utilities Index Mark 3 (HUI3), and the Functional Assessment of Chronic Illness Therapy-Fatigue (FACIT-F) questionnaires were administered at baseline, and at weeks 12, 26, 50, 74, 98, 122, 146 and 170, respectively. The HUI3 scale ranges from 0-1, with “1” denoting perfect health and “0” denoting death. FACIT-F scores range from 0-52, with higher scores representing less fatigue. SF-36 scores range from 0-100 with higher scores indicating improvement in HRQoL. Changes in HUI3 scores of ≧0.03, 1 FACIT-F scores of ≧4, 2 and individual SF-36 domain scores of 5-103 are considered clinically meaningful.
# [6] = tested on: patients with active rheumatoid arthritis; conditions: Study A (N=2008), 12 weeks; cited from earlier work
compound,measurement,setting,value
"CN(Cc1cnc2nc(N)nc(N)c2n1)c1ccc(C(=O)N[C@@H](CCC(=O)O)C(=O)O)cc1 [mtx alone, methotrexate]",patients with <20% decrease in CRP,adult patients with RA,67%
same,patients with ≧20% decrease in CRP,adult patients with RA,33%
"adalimumab: human anti-TNF mAb (HUMIRA, Abbott Laboratories), described in U.S. Pat. No. 6,090,382 as D2E7","Change in DAS28, mean change from baseline",[1]; all reasons for infliximab withdrawal (N=37),−1.6
same,"Change in DAS28, mean change from baseline",[1]; infliximab intolerance (N=5),−1.4
same,"Change in DAS28, mean change from baseline",[1]; no response to infliximab (N=13),−1.0
same,maximum change in DAS28,[1]; week 16,−4.7
same,patients with a decrease in DAS28 of ≧1.2,"[1]; week 16, completers (21 of 37)",57%
same,withdrawals for adverse events,[2],15%
same,Good EULAR response,[3],18%
same,Moderate EULAR response,[3],79%
same,"EULAR response, % good","[3]; Study C, preliminary analysis",18 (121) %
same,"EULAR response, % moderate","[3]; Study C, preliminary analysis",78 (121) %
same,Any serious infection,[4],0.040 N/PY
same,Serious infections,[4],4.8 E/100PY
same,FACIT-F change from baseline,[5]; 12 weeks,7.2
same,mean FACIT-F change from baseline,"[5]; week 26 (6 months), monotherapy","8.5 b, c"
same,mean FACIT-F change from baseline,"[5]; week 26 (6 months), monotherapy, listed as ada",8.5
same,mean FACIT-F change from baseline,[5]; week 50,7.3 ^b
same,mean FACIT-F change from baseline,[5]; week 98,7.2 ^b
same,mean FACIT-F change from baseline,[5]; week 146,7.1 ^b
same,mean FACIT-F change from baseline,[5]; week 170,7.2 ^b
same,"EULAR response, % good",[6],34%
same,"EULAR response, % moderate",[6],82%
